{"source": "patent US11471494B2", "about": "“Microorganisms programmed to produce immune modulators and anti-cancer therapeutics in tumor cells” (Synlogic Operating Company, Inc., priority 2017, dated 2022)", "key": {"kynurenine": {"system": "kynurenine", "assay": "Tumoral kynurenine levels, CT26 murine tumor model (Example 13)", "assay_type": "in vivo, mouse", "conditions": "Study 2; INCB024360 oral gavage twice daily"}, "CTLA-4 [1]": {"biological_target": "T1, CTLA-4 (Rattus norvegicus, UniProt Q62859)", "T1 sequence (Q62859 1-223)": "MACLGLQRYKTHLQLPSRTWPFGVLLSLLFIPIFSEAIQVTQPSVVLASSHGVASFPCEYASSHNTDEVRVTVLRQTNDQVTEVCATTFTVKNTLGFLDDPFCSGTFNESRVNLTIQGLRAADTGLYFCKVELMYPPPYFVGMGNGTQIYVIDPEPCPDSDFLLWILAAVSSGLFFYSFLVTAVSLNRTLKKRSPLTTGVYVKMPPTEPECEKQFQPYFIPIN", "conditions": "CTLA-4 from rats; cited from earlier work"}, "CTLA-4 [2]": {"biological_target": "CTLA-4 (Mus musculus, UniProt P09793)", "sequence (P09793 36-223)": "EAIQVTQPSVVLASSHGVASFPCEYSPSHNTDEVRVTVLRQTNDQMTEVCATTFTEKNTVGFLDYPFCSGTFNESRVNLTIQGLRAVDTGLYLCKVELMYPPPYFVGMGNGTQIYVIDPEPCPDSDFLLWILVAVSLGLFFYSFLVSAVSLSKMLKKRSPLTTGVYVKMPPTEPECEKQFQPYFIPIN", "conditions": "CTLA-4 from mice; cited from earlier work"}, "CTLA-4 [3]": {"biological_target": "T2, CTLA-4 (Oryctolagus cuniculus, UniProt P42072)", "T2 sequence (P42072 36-223)": "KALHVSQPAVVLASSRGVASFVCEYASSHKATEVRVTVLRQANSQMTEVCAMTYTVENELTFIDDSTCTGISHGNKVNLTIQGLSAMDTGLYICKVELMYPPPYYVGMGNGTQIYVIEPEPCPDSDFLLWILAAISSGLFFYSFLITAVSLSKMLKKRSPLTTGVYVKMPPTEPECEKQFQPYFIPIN", "conditions": "CTLA-4 from rabbits; cited from earlier work"}, "[4]": {"system": "NK cells, γδT cells and CD8+ T cells", "conditions": "upon treatment; cited from earlier work"}}, "data": [{"compound": "NS(=O)(=O)NCCNc1nonc1C(=NO)Nc1ccc(F)c(Br)c1", "note": "[INCB024360]", "values": [{"measurement": "Intratumoral kynurenine levels, SYN2028 compared with INCB024360", "setting": "kynurenine", "value": "similar"}]}, {"compound": "Ipilimumab", "values": [{"measurement": "cross-reactivity with or binding to CTLA-4", "setting": "CTLA-4 [1]", "value": "did not show cross-reactivity with or binding to"}, {"measurement": "cross-reactivity with or binding to CTLA-4", "setting": "CTLA-4 [2]", "value": "did not show cross-reactivity with or binding to"}, {"measurement": "cross-reactivity with or binding to CTLA-4", "setting": "CTLA-4 [3]", "value": "did not show cross-reactivity with or binding to"}]}, {"compound": "recombinant human IL-15: recombinant human IL-15 of a first-in-human clinical trial", "values": [{"measurement": "expansion of NK cells", "setting": "[4]", "value": 10, "unit": "fold"}, {"measurement": "proliferation of γδT cells and CD8+ T cells", "setting": "[4]", "value": "significantly increased"}]}]}
